In US20180078482A1, “COMPOSITION CONTAINING THEASAPOGENOL DERIVATIVE AS ACTIVE INGREDIENT” (AMOREPACIFIC CORPORATION, priority 2015, published 2018):

Columns and labels:
5α-reductase = molecular target: T1, 5α-reductase (Homo sapiens, UniProt P31213); assay: Inhibition of 5α-reductase activity ([14C]testosterone to [14C]dihydrotestosterone conversion in HEK293-5αR2 cells); type: cell-based; details: 2 μg/ml, 2 hours at 37° C.; for Conversion rate (%): radioactivity to DHT area/total radioactivity
T1 construct: 3×FLAG; expressed in transfected cells; host or cells: HEK293
T1 sequence (P31213 1-254): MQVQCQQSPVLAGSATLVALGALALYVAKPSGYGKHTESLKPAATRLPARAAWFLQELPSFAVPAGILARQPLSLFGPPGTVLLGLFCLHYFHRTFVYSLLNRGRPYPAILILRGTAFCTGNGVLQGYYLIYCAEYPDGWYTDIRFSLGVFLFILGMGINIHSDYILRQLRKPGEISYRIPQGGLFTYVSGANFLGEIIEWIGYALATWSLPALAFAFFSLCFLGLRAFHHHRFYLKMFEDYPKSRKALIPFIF
Procedure: The 5α-reductase activity inhibiting effect was measured by the ratio of [^14C]testosterone converted into [^14C]dihydrotestosterone in HEK293-5αR2 cells. HEK293 cells were transfected with p3×FLAG-CMV-5αR2 and incubated in a 24-well plate at a density of 2.5×10^5 cells per well (Park et al., 2003, JDS Vol. 31, pp. 91-98). The next day, the medium was replaced with a fresh medium containing an enzyme substrate and an inhibitor, and 0.05 μCi [^14C]testosterone (Amersham Pharmacia biotech, UK) was used as the substrate of the medium. In order to confirm the degree of inhibition, 2 μg/ml of theasapogenol derivative obtained in Preparation Example 1 was added to the medium as a test substance, and the medium was incubated in a 5% CO2 incubator at 37° C. for 2 hours.
Thereafter, the incubated mediums were collected and testosterone was extracted with 800 μl of ethyl acetate. The upper organic solvent layer was separated and dried, and the residue was dissolved again in 50 μl of ethyl acetate and developed on the silica plastic sheet kieselgel 60 F254 by using ethyl acetate-hexane (1:1) as a developing solvent. After the plastic sample was dried in the air, a bath system was used to measure the amounts of isotopes, the dried plastic sheet and an x-ray film were placed in a bath cassette together, and the amounts of isotopes in testosterone and dihydrotestosterone remaining on the film after one week were measured.
(1) Conversion rate: radioactivity to DHT area/total radioactivity
(2) Inhibition rate: 100×(conversion rate of control group−conversion rate of sample)/conversion rate of control group

Fibroblasts = assay: Promotion of collagen biosynthesis (procollagen type (I) ELISA in fibroblasts); type: cell-based; details: 2 μg/ml, 24 hours, untreated group set to 100
Procedure: The collagen biosynthesis promoting effect of the theasapogenol derivative obtained in Preparation Example 1 was measured in comparison with TGF-beta of a positive control.
Fibroblasts were seeded by 10^5 in one well of a 24-well plate and incubated until they grew up to about 90%. This was incubated in serum-free DMEM medium for 24 hours and treated with 2 μg/ml of each of the theasapogenol derivative obtained in Preparation Example 1 and TGF-beta, and incubated in a CO2 incubator for 24 hours. Thereafter, the supernatant was taken out and subjected to the observation using the ELISA kit (procollagen type (I)) to determine whether the procollagen increased or decreased. The results are presented in Table 1, and the collagen synthesizing ability was compared by setting the collagen synthesizing ability of the untreated group to 100.

[1] = 100×(conversion rate of control group−conversion rate of sample)/conversion rate of control group

inhibition at 2 µg/mL (5α-reductase; [1]) [%]	Conversion rate (%) (5α-reductase)	Inhibition rate (%) (5α-reductase; [1])	Molecule	Collagen synthesizing ability (%) (Fibroblasts)
44	27	–	CC(C)(C)NC(=O)[C@H]1CC[C@H]2[C@@H]3CC[C@H]4NC(=O)C=C[C@]4(C)[C@H]3CC[C@]12C [Finasteride, reference compound]	–
–	30	38	21-O-angeloyltheasapogenol E3 [Preparation Example 1]	145.1 ± 12.5
